This is an account of results in patent US11291651B2, “Glycopyrrolate salts” (Journey Medical Corporation, priority 2013, dated 2022).

The nature of data set [1]: glass transition temperature by modulated DSC. Format: physicochemical. Particulars: amorphous solid. How it is done: DSC was performed using a TA Instruments 2920 differential scanning calorimeter. Temperature calibration was performed using NIST-traceable indium metal. The sample was placed into an aluminum DSC pan, covered with a lid, and the weight was accurately recorded. A weighed aluminum pan configured as the sample pan was placed on the reference side of the cell. Modulated DSC data (see, e.g., FIG. 23) were obtained on a TA Instruments Q2000 differential scanning calorimeter equipped with a refrigerated cooling system (RCS). Temperature calibration was performed using NIST-traceable indium metal. The sample was placed into an aluminum DSC pan, and the weight was accurately recorded. The pan was covered with a lid perforated with a laser pinhole, and the lid was hermetically sealed. A weighed, crimped aluminum pan was placed on the reference side of the cell. Data were obtained using a modulation amplitude of ±1° C. and a 60 second period with an underlying heating rate of 2° C./minute from −50 to 220° C. The reported glass transition temperatures are obtained from the inflection point of the step change in the reversing heat flow versus temperature curve.

The conditions of data set [2]: exposed to standard atmospheric conditions. The source says:
In addition, the extremely low glass transition renders the amorphous form of glycopyrrolate challenging to formulate successfully.

The subject of the next data set is hyperhidrosis. The conditions noted are these: topically applied; compared with aluminum chloride; cited from earlier work.
For data set [3], the target named is M3 muscarinic acetylcholine receptor (Homo sapiens, UniProt P20309). Put plainly: binding affinity for the M3 muscarinic acetylcholine receptor in vitro. The conditions noted are these: glycopyrronium delivered as bromide or tosylate salt. An excerpt:
(§1) Such dose dependency is consistent with glycopyrrolate's anti-muscarinic activity. Accordingly, glycopyrrolate tosylate may also be used to treat hyperhidrosis in patients such as by administering a topical containing glycopyrrolate tosylate. By topical, what is meant is a material or formulation comprising or containing glycopyrrolate tosylate which may be used to deliver glycopyrrolate tosylate, including a pharmaceutically effective amount of glycopyrrolate tosylate, to a patient. In many embodiments, the glycopyrrolate tosylate is threo glycopyrrolate tosylate. Examples of a topical include, but are not limited to, solutions, ointments, gels, lotions, powders, sprays, creams, cream bases, patches, pastes, washes, dressings, masks, gauzes, bandages, swabs, brushes, or pads. The application of the topical may be controlled by controlling the dose amount or the rate of release. The dose may be controlled by dissolving or dispensing threo glycopyrrolate tosylate, for example, in the appropriate medium. These and other dose controlling formulations may be used to deliver controlled doses such as specific unit doses, metered doses, or multiple doses from the topical.

Data set [4] relates to patients suffering from hyperhidrosis. Briefly: study in patients suffering from hyperhidrosis treated with 2% and 4% glycopyrrolate formulations. In kind it is in vivo.
Text: as §1, with “By” for “Such dose dependency is consistent with glycopyrrolate's anti-muscarinic activity. Accordingly, glycopyrrolate tosylate may also be used to treat hyperhidrosis in patients such as by administering a topical containing glycopyrrolate tosylate. By”

SMILES strings stand for the structures.

Sequence of M3 muscarinic acetylcholine receptor (P20309 whole entry): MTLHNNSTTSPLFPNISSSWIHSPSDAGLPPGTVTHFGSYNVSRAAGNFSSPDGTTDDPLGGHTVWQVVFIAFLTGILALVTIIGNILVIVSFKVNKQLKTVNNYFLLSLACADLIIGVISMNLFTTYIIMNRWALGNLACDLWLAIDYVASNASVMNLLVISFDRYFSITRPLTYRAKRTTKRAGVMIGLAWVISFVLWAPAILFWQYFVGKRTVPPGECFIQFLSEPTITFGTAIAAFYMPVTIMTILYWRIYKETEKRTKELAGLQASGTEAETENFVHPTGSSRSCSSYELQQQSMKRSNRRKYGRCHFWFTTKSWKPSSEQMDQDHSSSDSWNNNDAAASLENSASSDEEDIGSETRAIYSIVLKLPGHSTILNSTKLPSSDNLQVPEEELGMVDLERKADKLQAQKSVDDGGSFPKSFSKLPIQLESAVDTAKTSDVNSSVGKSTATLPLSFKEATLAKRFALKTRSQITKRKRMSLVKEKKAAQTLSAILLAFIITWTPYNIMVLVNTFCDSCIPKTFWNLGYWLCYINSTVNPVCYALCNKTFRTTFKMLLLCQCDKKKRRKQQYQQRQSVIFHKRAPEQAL

For `C[N+]1(C)CCC(OC(=O)C(O)(c2ccccc2)C2CCCC2)C1.Cc1ccc(S(=O)(=O)[O-])cc1.O` (stereo not drawn) [amorphous glycopyrrolate tosylate], in data set [1], the “onset of the glass transition temperature” value was 11.6 °C. The hygroscopicity entry in data set [2] was “extremely hygroscopic which deliquesced readily”.
`C[N+]1(C)CCC(OC(=O)C(O)(c2ccccc2)C2CCCC2)C1` (stereo not drawn) [glycopyrrolate bromide, glycopyrronium bromide]: the effectiveness result with hyperhidrosis is reported as “increased effectiveness”. In data set [3], the “binding affinity for the M3 muscarinic acetylcholine receptor” value was “equivalent binding affinity”. The efficacy responses result in data set [4] (2% and 4% glycopyrrolate formulations) is given as “dose dependent trend”. Further, the axillary sweating entry in data set [4] (formulations containing 2% and 4% glycopyrrolate based on a glycopyrrolate bromide preparation) was “reduced”.
